From ChEMBL document CHEMBL4024790 (J Med Chem, 2018)

Key:
Cytochrome P450 1A2 = biological target: T1, Cytochrome P450 1A2 (Homo sapiens, UniProt P05177); test: Time-dependant inhibition of recombinant human CYP1A2; format: ADME; conditions: recombinant enzyme
T1 sequence (P05177 whole entry): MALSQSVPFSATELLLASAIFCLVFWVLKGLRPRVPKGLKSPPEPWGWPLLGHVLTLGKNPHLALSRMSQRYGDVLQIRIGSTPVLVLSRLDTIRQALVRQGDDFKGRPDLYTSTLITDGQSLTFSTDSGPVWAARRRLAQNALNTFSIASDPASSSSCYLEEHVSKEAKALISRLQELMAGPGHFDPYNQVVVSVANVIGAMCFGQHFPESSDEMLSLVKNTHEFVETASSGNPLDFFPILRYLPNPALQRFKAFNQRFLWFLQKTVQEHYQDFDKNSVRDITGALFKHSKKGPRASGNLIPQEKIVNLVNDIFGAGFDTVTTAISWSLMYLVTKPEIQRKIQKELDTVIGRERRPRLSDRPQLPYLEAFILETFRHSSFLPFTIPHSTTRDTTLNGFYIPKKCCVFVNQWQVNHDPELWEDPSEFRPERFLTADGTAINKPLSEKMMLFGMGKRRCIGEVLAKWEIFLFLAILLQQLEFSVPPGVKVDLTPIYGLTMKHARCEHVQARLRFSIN

Cytochrome P450 2D6 = Cytochrome P450 2D6 (Homo sapiens, UniProt P10635); test: Inhibition of recombinant human CYP2D6; format: ADME; conditions: recombinant enzyme
Cytochrome P450 2D6, sequence (P10635 whole entry): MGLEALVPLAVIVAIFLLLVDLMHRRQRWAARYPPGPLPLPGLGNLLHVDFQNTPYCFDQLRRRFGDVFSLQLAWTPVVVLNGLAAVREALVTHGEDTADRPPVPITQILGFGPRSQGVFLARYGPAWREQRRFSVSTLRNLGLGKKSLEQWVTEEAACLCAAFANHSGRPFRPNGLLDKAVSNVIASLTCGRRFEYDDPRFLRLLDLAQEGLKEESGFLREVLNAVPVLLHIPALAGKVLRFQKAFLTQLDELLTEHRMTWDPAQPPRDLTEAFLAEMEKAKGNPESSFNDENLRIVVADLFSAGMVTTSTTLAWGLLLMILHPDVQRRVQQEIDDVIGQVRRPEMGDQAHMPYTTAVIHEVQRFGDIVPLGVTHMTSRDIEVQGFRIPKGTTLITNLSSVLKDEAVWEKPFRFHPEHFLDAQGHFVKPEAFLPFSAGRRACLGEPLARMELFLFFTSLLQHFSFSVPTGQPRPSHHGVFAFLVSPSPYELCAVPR

[1] = 1-octanol/phosphate buffer solution partition coefficient, log D of the compound at pH 7.4 after 1 hr by LC-MS/MS method; format: physicochemical

TDI (Cytochrome P450 1A2): Not Active
inhibition (INH) (Cytochrome P450 2D6): Not Active
logD at 1 h [1]: 2.3
SMILES: Cc1nc(-c2cnn(C)c2-c2ccc(C(F)(F)F)cn2)c2c(N3CCC3)ncnn12 [PF-05180999]
